Results from patent publication US20070275923A1, “CATIONIC PEPTIDES FOR siRNA [sequence] [sequence]” (NASTECH PHARMACEUTICAL COMPANY INC., priority 2006, published 2007).
Residues, ends and D or L forms follow the SMILES beside them. Mal = not defined here

Columns and labels:
in vitro = conditions: C57BL/6J, mouse, mouse tail fibroblast (MTF) cells
Method: (§1) Mouse tail fibroblast (MTF) cells were derived from the tails of C57BL/6J mice. Tails were removed, immersed in 70% ethanol and then cut into small sections with a razor blade. The sections were washed three times with PBS and then incubated in a shaker at 37° C. with 0.5 mg/mL collagenase, 100 units/mL penicillin and 100 μg/mL streptomycin to disrupt tissue. Tail sections were then cultured in complete media (Dulbecco's Modified […] Medium with 20% FBS, 1 mM sodium pyruvate, nonessential amino acids and 100 units/mL penicillin and 100 μg/mL streptomycin) until cells were established. Cells were cultured at 37° C., 5% CO2 in complete media as outlined above.
(§2) Cells were be plated per well in a microtiter plate the day before transfection in complete media. The siRNA was be labeled, for example with a FAM, Alexa488, Alexa647 or Cy-5 conjugate. The cationic polymer peptide and siRNA were mixed in the microtiter plate complex with cells previously with OptiMEM. 7-AAD was added to each transfection to measure cell viability. Cells were transfected for three hours at 37° C., 5% CO2. The transfection mixture was removed and the cells were washed with TE buffer for about 10 minutes at 37° C., 5% CO2. Transfected cells were transferred to a V bottom plate and centrifuged. The TE buffer was removed and the transfected cells were resuspended in fluorescence activated cell sorting (FACS) buffer.
(§3) A non-transfection, siRNA alone, control was also performed. The peptide PN183 served herein as a positive cell-uptake control.
(§4) Cell-uptake is expressed as a percentage of the total cells with intracellular labeled siRNA. Cell Viability is also expressed as a percentage where 100% represents 100% viability. The MFI value is a relative value with a higher MFI value indicating a greater amount of labeled siRNA entered the cell. Within Table 3, “ND” means no data.

[1] = system: Mouse tail fibroblast (MTF) cells; experiment: siRNA cell-uptake and MFI measured by FACS after peptide-mediated transfection of labeled siRNA; assay type: cell-based; conditions: for % Cell-Uptake: % of total cells with intracellular labeled siRNA; for MFI: relative value; for intracellular delivery of siRNA (verbal conclusion from cell-uptake and cell viability): conclusion drawn from Table 3
Method: SiRNA cell uptake was measured by FACS.
For the instant example, cell-uptake, mean fluorescent intensity (MFI) and cell viability was measured for each peptide. siRNA cell-uptake was measured by the presence of intracellular labeled siRNA. The cell-uptake assay determined the percentage of cells that contain the labeled siRNA. Mean Fluorescence Intensity (MFI) was used to determine the relative mean quantity of labeled siRNA that entered the cells.
A non-transfection, siRNA alone, control was also performed.
Within Table 3, “ND” means no data.

[2] = system: Mouse tail fibroblast (MTF) cells; experiment: in vitro; conditions: 200 nM siRNA, 100% represents 100% viability
Method: as §1, §2, §3, §4

[3] = peptide concentration 1 μM, 200 nM labeled siRNA
[4] = peptide concentration 1 μM, 200 nM labeled siRNA, higher = more labeled siRNA entered the cell
[5] = peptide concentration 10 μM, 200 nM labeled siRNA
[6] = peptide concentration 10 μM, 200 nM labeled siRNA, higher = more labeled siRNA entered the cell
[7] = peptide concentration 100 μM, 200 nM labeled siRNA
[8] = peptide concentration 100 μM, 200 nM labeled siRNA, higher = more labeled siRNA entered the cell

Compound | viability at 3 h, 1 µM (in vitro) [%] | viability at 3 h, 10 µM (in vitro) [%] | viability at 3 h, 100 µM (in vitro) [%] | % Cell-Uptake [1, 3] [%] | MFI [1, 4] | % Cell-Uptake [1, 5] [%] | MFI [1, 6] | % Cell-Uptake [1, 7] [%] | MFI [1, 8] | % Cell Viability ([2]; peptide concentration 1 μM) [%] | % Cell Viability ([2]; peptide concentration 10 μM) [%] | % Cell Viability ([2]; peptide concentration 100 μM) [%] | intracellular delivery of siRNA (verbal conclusion from cell-uptake and cell viability) [1] | percent cell-uptake ([1]; concentration not given) | MFI ([1]; concentration not given)
CC[C@H](C)[C@H](NC(=O)[C@H](CCCCN)NC(=O)[C@@H](NC(=O)[C@H](CCC(N)=O)NC(=O)[C@H](CCCNC(=N)N)NC(=O)[C@H](CS)NC(=O)[C@@H](NC(=O)[C@H](CO)NC(=O)[C@H](CCCNC(=N)N)NC(=O)[C@H](Cc1c[nH]cn1)NC(=O)[C@H](Cc1c[nH]cn1)NC(=O)[C@H](Cc1c[nH]cn1)NC(=O)[C@H](Cc1c[nH]cn1)NC(=O)[C@H](Cc1c[nH]cn1)NC(=O)[C@@H](N)Cc1c[nH]cn1)C(C)C)[C@@H](C)CC)C(=O)N[C@@H](CS)C(=O)N[C@@H](CCCNC(=N)N)C(=O)N[C@@H](CCCNC(=N)N)C(=O)N[C@@H](CCCNC(=N)N)C(=O)NCC(=O)NCC(=O)N[C@@H](CS)C(=O)N[C@@H](Cc1ccc(O)cc1)C(=O)N[C@@H](Cc1ccc(O)cc1)C(=O)N[C@@H](CCCCN)C(=O)N[C@@H](CS)C(=O)N[C@H](C(=O)N[C@@H](CC(N)=O)C(=O)N[C@@H](CCCNC(=N)N)C(=O)N1CCC[C@H]1C(=O)N[C@@H](Cc1ccc(O)cc1)C(N)=O)[C@@H](C)O [PN951] (H-HHHHHHRSVCRQIKICRRRGGCYYKCTNRPY-NH2) | 97.2 | 99.1 | 97.9 | 31.8 | 4.02 | 80.1 | 14.3 | 45.7 | 9.19 | – | – | – | – | – | –
PEG (10 KDa)-Mal-(Lys)25-amide [PN927] | – | – | – | 1.6 | – | 0.8 | – | 0.7 | – | 95.6 | 97 | 97.3 | – | – | –
PEG (10 KDa)-Mal-(Lys-His)15-amide ({PEG 10 kDa-Mal}-KHKHKHKHKHKHKHKHKHKHKHKHKHKHKH-NH2; reading uncertain) [PN937] | – | – | – | 54.7 | 3.18 | 92.6 | 6.41 | – | – | 99 | 99.4 | – | effective intracellular delivery of siRNA without negatively impacting cell viability | – | –
PEG (10 KDa)-Mal-(Lys-His)10-amide ({PEG 10 kDa-Mal}-KHKHKHKHKHKHKHKHKHKH-NH2; reading uncertain) [PN940] | – | – | – | 69.9 | 4.81 | 70.6 | 2.54 | – | – | 99.1 | 98.4 | – | effective intracellular delivery of siRNA without negatively impacting cell viability | – | –
PEG (2 KDa)-Mal-(Lys)25-amide [PN925] | – | – | – | 5.2 | – | 2.9 | – | 2.2 | – | 96.6 | 97.8 | 95.8 | – | – | –
PEG (10 KDa)-Mal-(Lys)20-amide ({PEG 10 kDa-Mal}-KKKKKKKKKKKKKKKKKKKK-NH2; reading uncertain) [PN928] | – | – | – | 3.9 | – | 2.3 | – | 3.2 | – | 97.3 | 98 | 98.2 | – | – | –
PEG (10 KDa)-Mal-(Lys)15-amide ({PEG 10 kDa-Mal}-KKKKKKKKKKKKKKK-NH2; reading uncertain; also: printed as PEG (10 KDa)-Mal-(Lys)15-amide) [PN931] | – | – | – | 0.6 | – | 0.7 | – | 0.5 | – | 97 | 97.7 | 98.4 | – | – | –
PEG (10 KDa)-Mal-(Lys)10-amide ({PEG 10 kDa-Mal}-KKKKKKKKKK-NH2; reading uncertain; also: printed as PEG (10 KDa)-Mal-(Lys)10-amide) [PN934] | – | – | – | 0.2 | – | 1.1 | – | 0.3 | – | 98.3 | 96.2 | 97.4 | – | – | –
PEG (2 KDa)-Mal-(Lys-His)15-amide ({PEG 2 kDa-Mal}-KHKHKHKHKHKHKHKHKHKHKHKHKHKHKH-NH2; reading uncertain) [PN936] | – | – | – | 37.7 | 2.66 | 55.3 | 5.86 | 25.9 | – | 97.5 | 98.1 | 28.7 | effective intracellular delivery of siRNA without negatively impacting cell viability | – | –
H-KETWWETWWTEWSQPGRKKRRQRRRPPQ-NH2 [PN183, reference compound] | 96 | 96.8 | 76.7 | 9.3 | 3.61 | 47.4 | 3.77 | 58.9 | 10.5 | – | – | – | – | approximately 59% | ~11
PEG (2 KDa)-Mal-(Lys)10-amide ({PEG 2 kDa-Mal}-KKKKKKKKKK-NH2; reading uncertain; also: printed as PEG (2 KDa)-Mal-(Lys)10-amide) [PN933] | – | – | – | 0.3 | – | 0.5 | – | 0.2 | – | 97.7 | 98 | 98 | – | – | –
PEG (10 KDa)-Mal-Trp-(Lys)30-amide (WKKKKKKKKKKKKKKKKKKKKKKKKKKKKKK; PEG 10 kDa maleimide; C-terminal amide) [PN986] | – | – | – | 0.6 | – | 0.8 | – | 2.5 | – | 97.4 | 97.2 | 93.6 | – | – | –
PEG (2 KDa)-Mal-(Lys)20-amide ({PEG 2 kDa-Mal}-KKKKKKKKKKKKKKKKKKKK-NH2; reading uncertain) [PN926] | – | – | – | 0.9 | – | 1.4 | – | 1.2 | – | 97.9 | 98.3 | 98.3 | – | – | –
PEG (2 KDa)-Mal-(Lys)15-amide ({PEG 2 kDa-Mal}-KKKKKKKKKKKKKKK-NH2; reading uncertain; also: printed as PEG (2 KDa)-Mal-(Lys)15-amide) [PN930] | – | – | – | 0.2 | – | 1.5 | – | 0.8 | – | 97.9 | 97.2 | 97.8 | – | – | –
PEG (2 KDa)-Mal-(Lys-His)10-amide ({PEG 2 kDa-Mal}-KHKHKHKHKHKHKHKHKHKH-NH2; reading uncertain) [PN939] | – | – | – | 66 | 3.3 | 97 | 35.1 | 97.3 | 3.33 | 98.6 | 99.7 | 99.1 | effective intracellular delivery of siRNA without negatively impacting cell viability | – | –
